Patent publication US11130769B2 (Prelude Therapeutics Incorporated, priority 2018, dated 2021)
Where two headings read alike, the source gives them in different places.

Tests used:
[1] = system: H929 cells; test: Cell viability assay (H929 10 FBS); type: cell-based; details: Homo sapiens, NCI-H929, 24 hours, read-out: H929_10FBS IC50
Procedure, shortened: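 H929 cells, 4000/well, in RPMI 1640 with 10% FBS, sodium pyruvate, HEPES and glucose were exposed to compound 24 h at 37 °C. Viability read as luminescence after 30-60 min at RT with CellTiter-Glo or ATPlite 1 Step.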

[2] = target: MCL-1 (Homo sapiens (Human), UniProt Q07820); test: Cell free Mcl-1:Bim affinity assay (fluorescence polarization competition); type: binding; details: 15 nM MCL-1, 5 nM FITC-Bim, 1 hour at room temperature, read-out: BIM_Ki
Procedure, shortened: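 Compounds competed with FITC-labelled Bim peptide (5 nM) for MCL-1 (15 nM) in HEPES/NaCl buffer with 1% DMSO, 1 h at room temperature. Fluorescence polarization (535 nm emission) gave % inhibition versus DMSO and positive controls; IC50 from 10-point curves, converted to Ki by the Nikolovska-Coleska equation.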

Chain of MCL-1 (Q07820 whole entry): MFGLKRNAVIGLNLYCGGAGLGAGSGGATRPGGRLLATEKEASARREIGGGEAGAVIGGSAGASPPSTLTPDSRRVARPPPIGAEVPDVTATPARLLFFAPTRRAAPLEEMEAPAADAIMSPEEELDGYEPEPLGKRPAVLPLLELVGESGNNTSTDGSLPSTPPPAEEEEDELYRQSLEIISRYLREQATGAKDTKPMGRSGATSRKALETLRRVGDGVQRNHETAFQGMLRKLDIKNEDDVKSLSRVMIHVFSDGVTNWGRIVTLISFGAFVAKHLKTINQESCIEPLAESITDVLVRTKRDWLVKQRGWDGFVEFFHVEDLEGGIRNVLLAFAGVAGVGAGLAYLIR

Structure (SMILES)	IC50 [1] [nM]	Ki ([2]; class symbols) [nM]	Ki ([2]; numeric values) [nM]
O=C(Cc1ccccc1)NS(=O)(=O)c1ccc2c(c1)N(CC1CCC1)CC1(CCCc3cc(Cl)ccc31)CO2 (centres unmarked) [Example 5, N-[6′-Chloro-5-(cyclobutylmethyl)spiro[2,4-dihydro-1,5-benzoxazepine-3,1′-tetralin]-7-yl]sulfonyl-2-phenyl-acetamide]	> 1000	–	37.3
CO[C@@H]1CCN(C(=O)O[C@H]2/C=C/COC(C)(C)C(=O)NS(=O)(=O)c3ccc4c(c3)N(C[C@@H]3CC[C@H]32)C[C@@]2(CCCc3cc(Cl)ccc32)CO4)C1 [Example 58, [(3R,6R,7S,8E,22S)-6′-Chloro-12,12-dimethyl-13,15,15-trioxo-spiro[11,20-dioxa-15-thia-1,14-diazatetracyclo[14.7.2.03,6.019,24]pentacosa-8,16,18,24-tetraene-22,1′-tetralin]-7-yl] (3R)-3-methoxypyrrolidine-1-carboxylate]	< 500	< 1	–
CO[C@H]1CCN(C(=O)O[C@H]2/C=C/COC(C)(C)C(=O)NS(=O)(=O)c3ccc4c(c3)N(C[C@@H]3CC[C@H]32)C[C@@]2(CCCc3cc(Cl)ccc32)CO4)C1 [Example 195, [(3R,6R,7S,8E,22S)-6′-Chloro-12,12-dimethyl-13,15,15-trioxo-spiro[11,20-dioxa-15-thia-1,14-diazatetracyclo[14.7.2.03,6.019,24]pentacosa-8,16,18,24-tetraene-22,1′-tetralin]-7-yl] (3S)-3-methoxypyrrolidine-1-carboxylate]	< 500	< 1	–

The remaining lines, values ahead:

IC50 [1] [nM]	Ki ([2]; class symbols) [nM]	Ki ([2]; numeric values) [nM]	Structure (SMILES)
< 1000	< 1	–	CC1(C)OC/C=C/[C@@H](O)[C@@H]2CC[C@H]2CN2C[C@@]3(CCCc4cc(Cl)ccc43)COc3ccc(cc32)S(=O)(=O)NC1=O [Example 36, (3R,6R,7R,8E,22S)-6′-Chloro-7-hydroxy-12,12-dimethyl-15,15-dioxo-spiro[11,20-dioxa-15-thia-1,14-diazatetracyclo[14.7.2.03,6.019,24]pentacosa-8,16,18,24-tetraene-22,1′-tetralin]-13-one]
< 1000	< 1	–	CC1(C)OC/C=C/[C@H](OC(=O)NCCN2CCC(O)CC2)[C@@H]2CC[C@H]2CN2C[C@@]3(CCCc4cc(Cl)ccc43)COc3ccc(cc32)S(=O)(=O)NC1=O [Example 150, [(3R,6R,7S,8E,22S)-6′-Chloro-12,12-dimethyl-13,15,15-trioxo-spiro[11,20-dioxa-15-thia-1,14-diazatetracyclo[14.7.2.03,6.019,24]pentacosa-8,16,18,24-tetraene-22,1′-tetralin]-7-yl] N-[2-(4-hydroxy-1-piperidyl)ethyl]carbamate]
< 500	< 1	–	CN1CC[C@H](NC(=O)O[C@H]2/C=C/COC(C)(C)C(=O)NS(=O)(=O)c3ccc4c(c3)N(C[C@@H]3CC[C@H]32)C[C@@]2(CCCc3cc(Cl)ccc32)CO4)C1 [Example 151, [(3R,6R,7S,8E,22S)-6′-Chloro-12,12-dimethyl-13,15,15-triox-spiro[11,20-dioxa-15-thia-1,14-diazatetracyclo[14.7.2.03,6.019,24]pentacosa-8,16,18,24-tetraene-22,1′-tetralin]-7-yl] N-[(3S)-1-methylpyrrolidin-3-yl]carbamate]
> 1000	1 to 100	–	COC(=O)N1C/C=C/[C@@H](OC)[C@@H]2CC[C@H]2CN2C[C@@]3(CCCc4cc(Cl)ccc43)COc3ccc(cc32)S(=O)(=O)NC(=O)C2(CCC2)C1 [Example 67, (3R,6R,7R,8E,23S)-6′-Chloro-7-methoxy-11-methoxycarbonyl-13,13-(1,3-propylene)-16,16-dioxo-spiro[21-oxa-16-thia-1,11,15-triazatetracyclo[15.7.2.03,6.020,25]hexacosa[8,17(26),18,20(25)]tetraene-23,1′-tetralin]-14-one]
